Common to all, as to type: cell-based, human
The test system of assay [1] is tight junction proteins in IC/PBS cells. Briefly: Immunofluorescence confocal microscopy of tight junction proteins in IC/PBS cells. The conditions noted are these: IC/PBS cell explants, 9 days. On the procedure: For immunofluorescence, cells were fixed using ethanol/acetone (1:1) for 15 minutes at room temperature, washed 3 times with PBS and incubated with fluorescein isothiocyanate (FITC) labeled mouse monoclonal anti-ZO-1 (5 μg/ml); or unlabeled mouse monoclonal anti-occludin (5 μg/ml) or anti-claudin 4 (3 μg/ml); or unlabeled rabbit polyclonal anti-claudin 1 (3 μg/ml), anti-claudin 8 (8 μg/ml), or anti-claudin 12 (5 μg/ml from Zymed, South San Francisco, Calif.) diluted in PBS for 2 hours at 37 C. Cells incubated with unlabeled mouse monoclonal primary antibodies were then washed 3 times with PBS and further incubated with FITC-labeled secondary goat anti-mouse IgG antibody (Zymed) diluted in PBS, while cells incubated with unlabeled rabbit polyclonal primary antibodies were washed and further incubated for 2 hours at 37 C with goat anti-rabbit IgG (Zymed) diluted in PBS. Following an additional 5 washes with PBS, the cells were examined using an LSM510 confocal laser scanning microscope (Carl Zeiss, Oberkochen, Germany). Negative controls for the method included cells incubated without primary and secondary antibodies as well as cells incubated with secondary antibody alone.

Assay [2] has as its system ZO-1, occludin, claudin 1, 4, 8, 12 mRNA in IC/PBS cells. Briefly: qRT-PCR of tight junction protein mRNA in IC/PBS cells. The conditions noted are these: 16 or 30 day treatment. Here is the method:
Total RNA was extracted from IC/PBS and normal control epithelial cell explants using the RNEasy Plus Mini Kit (Qiagen) according to the manufacturer's protocol. Quantitative real time RT-PCR for tight junction gene expression was performed using Quantitect Primers (Qiagen), SYBR Green RT-PCR kit reagents (Qiagen), and a Roche 480 Light-Cycler. Samples were tested in triplicate runs, and specific mRNA levels quantified and compared to mRNA levels for β-actin using LightCycler 480 real-time PCR analysis software (version 1.5).
For the permeability assay, the percentage of total counts in the basal medium was determined in four experiments (using different IC/PBS cell donors), and expressed as mean±standard deviation. Crossover point analysis was performed for qRT-PCR data, and expression of each gene was quantified relative to β-actin; this value was expressed as mean±standard error of the mean for duplicate runs performed on two separate occasions. ^3H-thymidine incorporation was determined in triplicate on two separate occasions, and the CPM expressed as mean±standard deviation.

Assay [3] has as its system APF activity in normal bladder epithelial cells. As to the kind of experiment: Inhibition of APF antiproliferative activity in as-APF-treated normal bladder epithelial cells (3H-thymidine). Particulars: pretreatment, then as-APF (0.25 or 0.025 μM; 25 nM in FIG. 54), normal and/or IC/PBS bladder cells. Here is the method: Explanted cells grown from the biopsies of normal controls were plated on Day 0 at 1.5×10^4 cells/well onto a 96-well cell culture plate (VWR 29442-054), in 150 μL/well MEM containing 10% heat-inactivated FBS, 1% antibiotic/antimycotic solution, and 1% L-glutamine (all from Sigma), serum starved on Day 1, and treated with varying concentrations of D-pipecolic acid diluted in phosphate buffered saline (PBS) for 2 hours at 37° C. in a 5% CO2 atmosphere. […] The cell contents were then harvested and methanol-fixed onto glass fiber filter paper, and the amount of radioactivity incorporated was determined. Significance of the difference in mean values between groups was determined by an analysis of variance.
IC/PBS cells were incubated with varying concentrations of two derivatives shown to inhibit APF activity in normal bladder cells—GalGalNAc-TV(D-pipecolic acid) AAVVVA (SEQ ID NO:14) and GalGalNAc-TV (D-proline)AAVVVA (SEQ ID NO:27). Cell proliferation was determined by ^3H-thymidine incorporation; gene expression by quantitative RT-PCR; specific protein expression by Western blot analysis; tight junction formation by confocal immunofluorescence microscopy; and paracellular permeability by ^14C-mannitol and ^3H-inulin flux between confluent cells on Transwell plates. Significance of the difference in mean values between groups was determined by an analysis of variance for each assay. […]

“Also recorded” adds a separate entry of the source.

For `CC(=O)NC1C(O[C@@H]2OC(CO)[C@H](O)C(O)C2O)[C@@H](O)C(CO)O[C@@H]1OC(C)[C@H](N)C(=O)NC(C(=O)N1CCCC1C(=O)NC(C)C(=O)N[C@@H](C)C(=O)NC(C(=O)N[C@H](C(=O)NC(C(=O)N[C@@H](C)C(=O)O)C(C)C)C(C)C)C(C)C)C(C)C` (stereo in doubt) [Derivative 8, GalGalNAc-TV(D-proline)AAVVVA], the “expression of tight junction proteins by immunofluorescence confocal microscopy” value in assay [1] was “increased”. The figures for the “tight junction protein (ZO-1, occludin, claudins) mRNA expression in IC/PBS cells” value in assay [2] (listed as D-proline), in assay [2] (listed as D-proline APF) and in assay [2] (listed as GalGalNAc-TV-(D-proline)-AAVVVA) were “significantly (p<0.05) stimulate mRNA expression”, “stimulation of tight junction protein expression” and “significantly increased”, respectively. Besides, the “inhibition of APF antiproliferative activity” value is “blocked APF antiproliferative activity” in assay [3] and “inhibit the effect of as-APF on normal bladder epithelial cell proliferation; also recorded: inhibited this activity in nanomolar concentrations in a dose-dependent manner” in assay [3] (listed as D-proline APF).

For the origin of these results see patent US8912146B2, “Derivatives of APF and methods of use” (University of Maryland, Baltimore, priority 2008, dated 2014).
